The values that follow come from publication PMC3504033, “Inhibition of Angiotensin-Converting Enzyme Activity by Flavonoids: Structure-Activity Relationship Studies” (PLoS ONE, 2012).

Broadly, the inhibition is the share of the control response that was lost under treatment.

Where two headings read alike, the source gives them in different places. Bounds are passed on as bounds.

Experiment [1] concerns the target T1, Angiotensin-I Converting Enzyme from rabbit lung (Oryctolagus cuniculus, UniProt P12822).
T1 construct: Angiotensin-I Converting Enzyme from rabbit lung; purchased Sigma (Barcelona, Spain); host or cells: rabbit lung tissue
T1 sequence (P12822 34-1310): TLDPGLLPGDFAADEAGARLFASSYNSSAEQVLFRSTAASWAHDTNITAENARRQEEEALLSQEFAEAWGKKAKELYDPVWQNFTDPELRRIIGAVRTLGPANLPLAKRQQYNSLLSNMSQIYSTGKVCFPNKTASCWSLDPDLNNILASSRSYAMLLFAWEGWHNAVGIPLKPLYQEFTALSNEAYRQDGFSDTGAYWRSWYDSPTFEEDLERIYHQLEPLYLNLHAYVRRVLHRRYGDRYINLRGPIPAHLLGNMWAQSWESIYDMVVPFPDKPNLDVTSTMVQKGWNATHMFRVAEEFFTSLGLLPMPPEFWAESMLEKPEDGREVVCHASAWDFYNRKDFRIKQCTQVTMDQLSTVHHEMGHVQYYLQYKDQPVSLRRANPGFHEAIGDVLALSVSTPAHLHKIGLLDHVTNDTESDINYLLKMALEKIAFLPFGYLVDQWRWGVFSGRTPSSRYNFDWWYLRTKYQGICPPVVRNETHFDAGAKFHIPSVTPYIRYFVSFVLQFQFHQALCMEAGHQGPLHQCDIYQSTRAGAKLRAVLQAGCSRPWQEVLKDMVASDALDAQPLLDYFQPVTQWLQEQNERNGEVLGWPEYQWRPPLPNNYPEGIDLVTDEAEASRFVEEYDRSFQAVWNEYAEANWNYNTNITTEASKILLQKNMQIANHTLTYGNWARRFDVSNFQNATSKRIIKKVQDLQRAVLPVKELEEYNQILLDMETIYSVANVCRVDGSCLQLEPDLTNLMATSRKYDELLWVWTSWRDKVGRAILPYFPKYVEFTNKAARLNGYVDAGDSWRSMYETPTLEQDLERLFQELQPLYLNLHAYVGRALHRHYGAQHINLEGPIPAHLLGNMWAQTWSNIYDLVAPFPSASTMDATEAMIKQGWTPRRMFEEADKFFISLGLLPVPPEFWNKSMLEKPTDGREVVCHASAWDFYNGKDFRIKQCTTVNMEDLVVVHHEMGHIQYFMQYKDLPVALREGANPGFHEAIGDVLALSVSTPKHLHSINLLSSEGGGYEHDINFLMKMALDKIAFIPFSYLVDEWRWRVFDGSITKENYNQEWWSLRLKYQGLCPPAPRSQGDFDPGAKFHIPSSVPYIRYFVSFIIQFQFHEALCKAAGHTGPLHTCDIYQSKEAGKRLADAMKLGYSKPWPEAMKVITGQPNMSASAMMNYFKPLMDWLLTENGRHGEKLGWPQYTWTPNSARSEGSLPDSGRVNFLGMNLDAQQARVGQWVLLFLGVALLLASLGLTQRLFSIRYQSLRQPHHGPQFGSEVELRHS
The experiment is described as follows: ACE-inhibitory (ACEI) activity, fluorimetric assay with o-Abz-Gly-p-Phe(NO2)-Pro substrate. Type of experiment: biochemical. Conditions: for change of ACEI activity on structural change, vs. luteolin: compared with luteolin (Figure 3); for inhibition at 100 µM / inhibition at 500 µM: 0.5 h; for inhibition at 100 µM: mean of three experiments (Figure 2A); for relative IC50 ratio: IC50 relative to luteolin (1); for IC50: technical and biological triplicate, read-out: IC50 value (concentration that inhibits ACE activity by 50%). From the text: o-aminobenzoylglycyl-p-nitro-phenylalanylproline (o-ABz-Gly-Phe(NO2)-Pro) was purchased from Bachem Feinchemikalien (Bubendorf, Switzerland). Five units of Angiotensin-I Converting Enzyme from rabbit lung and ZnCl2 were obtained from Sigma (Barcelona, Spain). […] Flavonoids were solubilized in dimethyl sulfoxide (DMSO) and prepared daily. In all experiments, the final concentration of DMSO was 0.4%. Distilled water was obtained from a Millipore Milli-Q® system.
Flavonoid solutions (100 and 500 µM) were prepared in DMSO (0.4%) daily. The 0.1 U/mL ACE solution stock was prepared in glycerol: water (1∶1), aliquoted and stored at −20°C. The 0.1 µM ZnCl2 stock solution was prepared and stored at 4°C. The ACE working solution was prepared daily by diluting it in 150 mM Tris buffer (pH 8.3) containing 0.1 µM ZnCl2.
ACEI activity was measured by a fluorimetric assay following the method of Sentandreu and Toldrá [43] with some modifications. […] Fluorescence was measured after 30 min in 96-well microplates (Thermo Scientific, Rochester, NY) using a multiscan microplate fluorimeter (Biotek. FL×800). Microplates (Thermo Scientific, Rochester, NY) were used in this assay. The excitation and emission wavelengths were 360 and 430 nm, respectively. The activity of each sample was tested in technical and biological triplicate.
The ACEI activity was calculated using the following formula: [drawing 1] where A is the fluorescence without the flavonoid solution, B is the fluorescence without ACE and C is the fluorescence in the presence of both ACE and the flavonoid solution. A flavonoid solution of 500 µM was selected on the basis of previous studies, [35], and the concentration of 100 µM was chosen because it is within the physiological concentration range. […] The IC50 of each selected flavonoid was tested in technical and biological triplicate. The results from three experiments are expressed as the mean ± SD and were performed in different platelet samples.

Another experiment deals with ACE N domain. On the set-up: method as in PMID 11303049. To be noted: ACE inhibition with N-domain-specific inhibitor; cited from earlier work.
The mark [2] stands for this setting: 100 µM flavonoid, purified lung ACE, 37°C, 30 min, read-out: percentage of ACE inhibition.
Where [3] appears, read: 500 µM flavonoid, purified lung ACE, 37°C, 30 min, mean of three experiments (Figure 2B), read-out: percentage of ACE inhibition.
Where [4] appears, read: read-out: percentage of ACE inhibition, 100 µM flavonoid, purified lung ACE, 37°C, 30 min.

With `Oc1cc(O)c2c(c1)O[C@H](c1ccc(O)c(O)c1)[C@H](O)C2` [Epicatechin], the “change of ACEI activity on structural change, vs. luteolin” value (from here on “change of ACEI activity … vs. luteolin”) in experiment [1] (100 µM) was −74%. Moreover, the inhibition at 100 µM in experiment [1] (setting [2]) was determined as 15%. In experiment [1] (setting [3]), the inhibition at 500 µM is over 30%.

For `O=C1C[C@@H](c2ccc(O)cc2)Oc2cc(O)cc(O)c21.[K]` [Naringenin K], the “percentage of ACE inhibition” value in experiment [1] (500 µM flavonoid, purified lung ACE, 37°C, 30 min, mean of three experiments (Figure 2B), listed as narigenin K) was “higher than 30%”.

For the molecule `COc1ccc(-c2cc(=O)c3c(O)cc(O)cc3o2)cc1O` [Diosmetin], in experiment [1] (100 µM), the “change of ACEI activity … vs. luteolin” value is −78% and the “reduction of ACEI activity relative to luteolin” value is on record as 78%. Further, in experiment [1] (setting [2]), the inhibition at 100 µM is 12.5%.

For the molecule `Oc1cc(O)c2c(c1)O[C@H](c1ccc(O)c(O)c1)[C@@H](O)C2` [Catechin], the inhibition at 100 µM in experiment [1] (setting [2]) was 7.5%. The inhibition at 500 µM in experiment [1] (setting [3]) was determined as 29%.

Turning to `O=c1cc(-c2ccc(O)cc2)oc2cc(O)cc(O)c12.[K]` [Apigenin K], in experiment [1], the “relative IC50 ratio” value is recorded as 8.52 and the IC50 is 196 µM.

Turning to `O=C1C[C@@H](c2ccc(O)cc2)Oc2cc(O)cc(O)c21` [Naringenin], the “change of ACEI activity on structural change, vs. apigenin” value in experiment [1] (100 µM, compared with apigenin (Figure 3)) is listed as −91%. Also, the “reduction of ACEI activity vs. apigenin” value in experiment [1] (100 µM, vs. apigenin) was 91%. In addition, the inhibition at 100 µM in experiment [1] (setting [2]) came to 2.3%. In addition, in experiment [1] (setting [3]), the inhibition at 500 µM worked out at 22.3%.

Regarding `C[C@@H]1O[C@@H](O[C@H]2[C@H](Oc3cc(O)c4c(c3)O[C@H](c3ccc(O)cc3)CC4=O)O[C@H](CO)[C@@H](O)[C@@H]2O)[C@H](O)[C@H](O)[C@H]1O` [Naringin], in experiment [1] (setting [2]), the inhibition at 100 µM was determined as 4.5%. Moreover, in experiment [1] (setting [3]), the inhibition at 500 µM was 23.3%.

As to `COc1ccc([C@@H]2CC(=O)c3c(O)cc(O)cc3O2)cc1O` [Hesperetin], the inhibition at 100 µM in experiment [1] (setting [2]) amounted to 0.7%. Besides, in experiment [1] (setting [3]), the inhibition at 500 µM was over 30%.

Take `C[C@@H]1O[C@@H](OC[C@H]2O[C@@H](Oc3c(-c4ccc(O)c(O)c4)oc4cc(O)cc(O)c4c3=O)[C@H](O)[C@@H](O)[C@@H]2O)[C@H](O)[C@H](O)[C@H]1O` [Rutin, quercetin 3-O-glycoside]: in experiment [1] (100 µM), the “change of ACEI activity … vs. luteolin” value was -36%. Moreover, in experiment [1] (setting [2]), the inhibition at 100 µM is over 30%. In experiment [1], the “relative IC50 ratio” value is listed as 2.78 and the IC50 was found to be 64 µM.

In the case of `COc1ccc(-c2cc(=O)c3c(O)cc(O[C@@H]4O[C@H](CO[C@@H]5O[C@@H](C)[C@H](O)[C@@H](O)[C@H]5O)[C@@H](O)[C@H](O)[C@H]4O)cc3o2)cc1O` [Diosmin], in experiment [1] (setting [2]), the inhibition at 100 µM was 9.3%. Moreover, the inhibition at 500 µM in experiment [1] (setting [3]) was over 30%.

Regarding `COc1ccc(C2CC(=O)c3c(O)cc(OC4OC(COC5OC(C)C(O)C(O)C5O)C(O)C(O)C4O)cc3O2)cc1O` (centres unmarked) [Hesperidin], the inhibition at 100 µM in experiment [1] (setting [4]) was determined as 0%. In experiment [1] (read-out: percentage of ACE inhibition, 500 µM flavonoid, purified lung ACE, 37°C, 30 min, mean of three experiments (Figure 2B)), the inhibition at 500 µM was 17%.

With `O=c1cc(-c2ccc(O)c(O)c2)oc2cc(O)cc(O)c12` [Luteolin], in experiment [1], the “relative IC50 ratio” value is on record as 1 and the IC50 stood at 23 µM.

On to `O=c1c(O)c(-c2ccc(O)cc2)oc2cc(O)cc(O)c12` [Kaempferol], for which the inhibition at 100 µM in experiment [1] (setting [2]) is over 30%. Besides, in experiment [1], the “relative IC50 ratio” value was 7.74 and the IC50 is 178 µM. Also, the “increase in the IC50 relative to quercetin” value in experiment [1] (relative to quercetin) turned out to be 4 fold.

With `CC(=O)N[C@@H](CC(=O)O)C(=O)N[C@@H](Cc1ccccc1)P(=O)(O)C[C@@H](C)C(=O)N[C@@H](C)C(N)=O` [RXP407], in the experiment with ACE N domain, the “effect on blood pressure regulation” value is reported as “no effect on blood pressure regulation”.

In the case of `O=c1c(-c2ccc(O)cc2)coc2cc(O)cc(O)c12` [Genistein], the inhibition at 100 µM in experiment [1] (setting [2]) worked out at 25.7%. Moreover, the inhibition at 500 µM in experiment [1] (setting [3]) was over 30%.

Consider `O=c1c(O)c(-c2ccc(O)c(O)c2)oc2cc(O)cc(O)c12` [Quercetin], for which, in experiment [1] (100 µM), the “change of ACEI activity … vs. luteolin” value was −44%. In addition, in experiment [1] (setting [4]), the inhibition at 100 µM was over 30%.

As to `O=c1cc(-c2ccc(O)cc2)oc2cc(O)cc(O)c12` [Apigenin], in experiment [1] (100 µM), the “change of ACEI activity … vs. luteolin” value is on record as −57% and the “reduction of ACEI activity relative to luteolin” value is recorded as 57%. In experiment [1] (setting [2]), the inhibition at 100 µM is 24.7%.

For `C[C@@H]1O[C@@H](O[C@H]2[C@H](Oc3cc(O)c4c(=O)cc(-c5ccc(O)cc5)oc4c3)O[C@H](CO)[C@@H](O)[C@@H]2O)[C@H](O)[C@H](O)[C@H]1O` [Rhoifolin, apigenin 7-O-glycoside], in experiment [1] (setting [2]), the inhibition at 100 µM was over 30%. Also, in experiment [1], the “relative IC50 ratio” value is 7.96 and the IC50 amounted to 183 µM.
